# Data taken from BindingDB's records for doi:10.1021/jm049073+ (University of Innsbruck, 2005).
# Target: Sigma non-opioid intracellular receptor 1 (Cavia porcellus)
# Assay: Affinity for sigma receptor type 1 of guinea pig using [3H]ifenprodil or (+)-[3H]pentazocine radioligand
row,SMILES,Ki [µM]
1,"CC1=C2C[C@H]3[C@@H](CC=C4C[C@@H](O)CC[C@@]43C)[C@@H]2CC[C@]12O[C@]1(C)C[C@H](C)CN[C@H]1[C@H]2C [2',3,6,7a,15'-Pentamethyl-(1'S,2'R,2'R,3R,3aS,5'S,6S,7aR,10'S,11'S)-spiro[perhydrofuro[3,2-b]pyridine-2,14'-tetracyclo[8.7.0.02,7.011,16]heptadeca-7',15'-diene]-5'-ol]",> 100
2,"C[C@H]1CCC2[C@@H](C)[C@H]3[C@H](C[C@H]4[C@@H]5CC=C6C[C@@H](O)CC[C@]6(C)[C@H]5CC[C@]34C)N2C1 (stereo partly drawn) [4a,6a,7,10-tetramethyl-(2S,4aR,4bS,6aS,6bR,7S,10S,12aS,13aS,13bR)-2,3,4,4a,4b,5,6,6a,6b,7,7a,8,9,10,11,12a,13,13a,13b,14-icosahydro-1H-naphtho[2',1':4,5]indeno[1,2-b]indolizin-2-ol]",0.074
3,"CC[C@H]1CC2C[C@H]3C4Nc5ccc(OC)cc5C4CCN(C2)C13 (stereo partly drawn) [17-ethyl-3,13-diazapentacyclo[13.3.1.02,10.04,9.013,18]nonadeca-4,6,8-trien-7-yl methyl ether]",8.55
4,NC(=Nc1nc(-c2cc3ccccc3[nH]2)cs1)NCc1ccccc1 [N-Benzyl-N'-[4-(1H-indol-2-yl)-thiazol-2-yl]-guanidine],26.7

# The remaining molecules from weak to strong by Ki, led by results:
row,Ki [µM],SMILES
1,0.68,O=C(O)c1ccc(CCN2CCN(C/C=C/c3ccc(Cl)cc3)CC2)cc1
2,0.23,CCCCCCCOc1ccccc1NC(=O)OC(C)CN(CC)CC (stereo not drawn) [(2-Heptyloxy-phenyl)-carbamic acid 2-diethylamino-1-methyl-ethyl ester]
3,0.0013,CN(c1nc2ccccc2s1)C1CCN(CCCCOc2ccccc2)C1 (stereo not drawn) [Benzothiazol-2-yl-methyl-[1-(4-phenoxy-butyl)-pyrrolidin-3-yl]-amine]
4,0.001,CCCCCCCCCCCCC(C#N)(CCCN(C)CCc1ccccc1)c1ccccc1 (stereo not drawn) [2-[3-(Methyl-phenethyl-amino)-propyl]-2-phenyl-tetradecanenitrile]
